{"source": "patent US20250041313A1", "about": "“COMBINATION THERAPY FOR TREATMENT OF CANCER” (CITY OF HOPE, priority 2023, published 2025)", "assay_type_in_all_cases": "cell-based, human", "key": {"panel of SCLC cell lines": {"tested_on": "panel of SCLC cell lines", "assay": "CCK-8 cytotoxicity in a panel of SCLC cell lines (statements on the panel)", "settings": "72 h", "description": "The expression levels of DRP1 and DHODH in SCLC lines were compared with non-malignant BEAS 2B cells. […] Previous studies have shown that Leflu and its active metabolite Teri regulate mitochondrial morphology (9,10,26). […] In vitro cytotoxicity effect of Teri and Leflu was tested in a panel of SCLC cell lines. Ten SCLC cell lines were treated with increasing concentrations of each drug for 72 h.\nAmong the drugs approved for SCLC, lurbinectedin is used to treat patients with metastatic SCLC with disease progression. Lurbinectedin (Lur) is an inhibitor of RNA polymerase II, which is commonly hyperactivated in SCLC, resulting in excessive transcription in tumor cells (44). In this study, we tested the combination of Lur with Teri to see if it may reduce the viability of SCLC cells."}, "SBC3 cells [1]": {"tested_on": "SBC3 cells", "assay": "IncuCyte S3 live-cell proliferation", "description": "(§1) FIGS. 2A-2I. Teriflunomide (Teri) affects the phosphorylation of DRP1 at Ser^616 and mitochondrial/nuclear morphology. FIG. 2A: Effect of Teri and Leflu on SBC3, and SBC5 cells proliferation was recorded by the Sartorius IncuCyte S3 live-cell analysis system (n=2, four technical replicates). […] FIG. 2B: Effect of Teri on DRP1 phosphorylation in SBC3 cells. Cell lysates were subjected to immunoblotting (n=3, biological replicates). FIG. 2C: The expression ratio of level of pDRP1 Ser^616 and Ser^637 to actin was calculated via densitometric analysis of each blot using ImageJ software. The detected ratio of pDRP1 Ser^616 to pDRP1 Ser^637 was calculated and compared in SBC3 cells. […] FIGS. 2D-2E: Calculating pDRP1 Ser^616 fluorescence signal by QuPath software. Bar graphs mean±SE, *p<0.05; **p<0.01; ***p<0.001; ****p<0.0001. Results were analyzed by ANOVA with Tukey post-test. FIG. 2F: The surface areas of SBC3 mitochondria and nuclei were quantified with Imaris Cells modules. The minimal number of SBC3 cells analyzed for each group was 103 (M1 10 μM), and the maximal was 383 (Control). FIG. 2G: SBC5 mitochondria and nuclei surface areas were quantified with Imaris Cells modules. The minimal number of SBC5 cells analyzed for each group was 357 (MDIVI1 10 μM) and the maximal was 570 (Control). Results were analyzed by ANOVA with Tukey post-test, *p<0.05; **p<0.01; ****p<0.0001. Mitochondria in control cells were closely packed around the nuclei and treatment with Teri rearranged the mitochondrial network and extended the area from the nuclei. […] SBC3 cells were treated with drugs for 18 hours, fixed with paraformaldehyde and subjected to IF staining with Tom 20 antibody, nuclei were stained with Hoechst 33342. Scale bar 10 μm. Right inserts represent shape of mitochondria for control and treatments. FIG. 2I: High resolution confocal IF images of mitochondria in SBC5 cells. Scale bar 10 μm. Right inserts represent shape of mitochondria for control and treatments."}, "SBC5 cells [2]": {"tested_on": "SBC5 cells", "assay": "IncuCyte S3 live-cell proliferation", "description": "as §1"}, "SBC3 cells [3]": {"tested_on": "SBC3 cells", "assay": "Imaris quantification of mitochondrial and nuclear areas/morphology", "description": "(§2) Imaris 9.9.0 (Bitplane, AG), with Surfaces and Cells modules, was used to generate mitochondria morphology data from 2D images and 2D Z-stack subsets. Surfaces were used to evaluate individual mitochondria from cell monolayers and spheroids. Detection parameters were optimized for visible mitochondria and nuclei in each group with varying signal intensities. Roundness ratios were calculated from Surface generated Bounding Box 00 Length measurements. Object lengths less than 0.1 μm were excluded, and lengths greater than 1.26 μm were separately analyzed as clusters. Thresholds were uniformly applied to roundness ratios to categorize mitochondria morphology as elongated (<0.599), intermediate (≥0.600-0.649), or round/fragmentated (≥0.650). The percentage of cells from total number is based on a ratio. A perfectly round object has a ratio of 1.0. The Cells module was used to detect and quantify mitochondria and nucleus area from cell monolayers. Identical parameters were applied to all groups with cell boundary detection based on mitochondria signals. Imaris includes nuclei in cytoplasm measurements, so mitochondrial area is calculated by subtracting nucleus area from cell cytoplasm area. Abnormal nuclei were excluded (<100 μm^2, >750 μm^2).\nMitoTracker Red and Hoechst 33342 were used to validate Teri and Leflu effects on intact mitochondrial morphology in SBC3 and SBC5 cells. M1 and MDIVI1 compounds were used as positive controls because they are promoters of mitochondrial fusion. Mitochondrial and nuclear areas were quantified by analyzing object surface area and intensity in Imaris 9.9.0."}, "SBC5 cells [4]": {"tested_on": "SBC5 cells", "assay": "Imaris quantification of mitochondrial and nuclear areas/morphology", "settings": "for effect on mitochondrial areas: SBC5", "description": "as §2\nNext, we performed the same analysis with SBC5 cells. […] Mitochondrial elongation in SBC3 cells treated with Teri and Leflu is visible and correlates with Imaris Surface results. […] Although mitochondrial areas of SBC5 cells were not affected by Teri and Leflu treatments, elongations of individual mitochondria were detected with each treatment (FIG. 2I). […] Therefore, it is important to investigate the effects of Teri and Leflu on mitochondrial morphology and cell survival in combination with chemotherapeutic drugs."}, "H446 spheroids": {"tested_on": "H446 spheroids", "assay": "Spheroid ATP assay (Cell titer glo)", "settings": "72 h, Teri 1600 nM, Lur 1600 pM, Teri/Lur 1600 nM/pM", "description": "Cell titer glo/ATP assay (Promega, Madison, WI) was used for ATP measurement in spheroids. After 72 h of drug treatments, intracellular spheroid's ATP concentration was measured by luminescence following the manufacturer protocol using Tecan Spark 10 plate reader."}}}
{"smiles": "Cc1oncc1C(=O)Nc1ccc(C(F)(F)F)cc1", "note": "[Leflunomide, leflunomide]", "values": [{"measurement": "IC50 doses compared with Teri", "setting": "panel of SCLC cell lines; ten SCLC cell lines", "result": "much higher"}, {"measurement": "cell proliferation", "setting": "SBC3 cells [1]", "result": "inhibited cell proliferation in a dose-dependent manner"}, {"measurement": "cell proliferation", "setting": "SBC5 cells [2]", "result": "inhibited cell proliferation in a dose-dependent manner"}, {"measurement": "Mitochondrial elongation (Airyscan imaging)", "setting": "SBC3 cells [3]; SBC3", "result": "visible"}, {"measurement": "effect on mitochondrial or nuclear areas", "setting": "SBC3 cells [3]; SBC3", "result": "did not affect"}, {"measurement": "effect on mitochondrial areas", "setting": "SBC5 cells [4]", "result": "not affected"}, {"measurement": "Nuclear area", "setting": "SBC5 cells [4]; SBC5, 20 μM", "result": "386.8±7.23", "unit": "μm^2"}]}
{"smiles": "COc1ccc2[nH]c3c(c2c1)CCN[C@]31CS[C@@H]2c3c(OC(C)=O)c(C)c4c(c3[C@H](COC1=O)N1[C@@H]2[C@H]2c3c(cc(C)c(OC)c3O)C[C@@H]([C@@H]1O)N2C)OCO4", "note": "[Lurbinectedin, lurbinectedin]", "values": [{"measurement": "cell cytotoxicity at low doses", "setting": "panel of SCLC cell lines; H69, H82, H446, SBC3, and SBC5 cells", "result": "drastically increased cell cytotoxicity"}, {"measurement": "ATP level compared with the control", "setting": "H446 spheroids", "result": "~60", "unit": "%"}]}
{"smiles": "C/C(O)=C(\\C#N)C(=O)Nc1ccc(C(F)(F)F)cc1", "note": "[Teriflunomide, teriflunomide]", "values": [{"measurement": "IC50", "setting": "panel of SCLC cell lines; Homo sapiens, five of ten SCLC cell lines, read-out: IC50 in the five sensitive cell lines", "result": "< 11", "unit": "µM"}, {"measurement": "cell proliferation", "setting": "SBC3 cells [1]", "result": "inhibited cell proliferation in a dose-dependent manner"}, {"measurement": "cell proliferation", "setting": "SBC5 cells [2]", "result": "inhibited cell proliferation in a dose-dependent manner"}, {"measurement": "Mitochondrial elongation (Airyscan imaging)", "setting": "SBC3 cells [3]; SBC3", "result": "visible"}, {"measurement": "Mitochondrial area", "setting": "SBC3 cells [3]; SBC3, 10 μM", "result": "569±19.9", "unit": "μm^2"}, {"measurement": "Nuclear size (area)", "setting": "SBC3 cells [3]; SBC3, 10 μM", "result": "386.8±10.86", "unit": "μm^2"}, {"measurement": "Mitochondrial area", "setting": "SBC3 cells [3]; SBC3, 20 μM", "result": "604.8±28.9", "unit": "μm^2"}, {"measurement": "Nuclear size (area)", "setting": "SBC3 cells [3]; SBC3, 20 μM", "result": "423.5±16.57", "unit": "μm^2"}, {"measurement": "effect on mitochondrial areas", "setting": "SBC5 cells [4]", "result": "not affected"}, {"measurement": "Nuclear area", "setting": "SBC5 cells [4]; SBC5, 10 μM", "result": "369.5±6.15", "unit": "μm^2"}, {"measurement": "Nuclear area", "setting": "SBC5 cells [4]; SBC5, 20 μM", "result": "369.8±5.94", "unit": "μm^2"}, {"measurement": "ATP level compared with the control", "setting": "H446 spheroids", "result": "approximately 80%"}]}
